What was measured:
J2N-k hamsters [1] = assay: Efficacy evaluation in dilated cardiomyopathy model (Example 1); format: in vivo, hamster
From the text: J2N-k hamsters (18-week-old, male, 20 animals in total), which are model animals of dilated cardiomyopathy, were obtained from Japan SLC, acclimated for 2 weeks, and then used for experiments. J2N-k hamsters spontaneously develop dilated cardiomyopathy due to deletion mutations in the […] gene (specifically, cardiomyocyte shedding and fibrosis begin around 5 weeks of age, cardiomegaly and cardiac dysfunction appear at approximately 20 weeks of age, and eventually they die of congestive heart failure at approximately 1 year. J Biochem. 2003 August; 134(2):269-76). Also, a peptide consisting of amino acid residues 1-44 (SEQ ID NO: 1) of the human HMGB1 protein was chemically synthesized by a solid-phase method. Hereinafter, the peptide is referred to as the HMGB1 peptide (1-44), and is abbreviated as “1-44” in the drawing corresponding to the Examples.
J2N-k hamsters were divided into the HMGB1 peptide (1-44)-treated (n=10) and PBS-treated (control, n=10) groups, and treatment was begun at 20 weeks of age (body weight about 120 g). Administration of the test substance was carried out by injecting a solution of the HMGB1 peptide (1-44), which has been adjusted to a concentration of 1 mg/ml with PBS as the vehicle, into the external jugular vein at a dose of 3 ml/kg (3 mg/kg as the peptide dosage) once a day for four consecutive days. In the control group, PBS was injected into the external jugular vein at a dose of 3 ml/kg once a day for four consecutive days. At 6 weeks after administration, a thoracotomy was performed under deep anesthesia, and the heart was removed. The mid portion of the heart was divided for cryopreservation and for paraffin fixation, and a histopathological examination was performed. Molecular biological studies were also performed using apical myocardium to evaluate effects of administration of the HMGB1 peptide (1-44).
Echocardiography was performed prior to dosing, and at 4 and 6 weeks after dosing; and left ventricular end-diastolic diameter (LVDd), left ventricular end-systolic diameter (LVDs), and left ventricular ejection fraction (LVEF) were measured and calculated to perform a cardiac function assessment. […]
Periodic Acid Schiff (PAS) staining of the myocardial tissue sections was performed to measure the short diameter of cardiomyocytes retaining a nuclear architecture, and the average of the measurements was obtained. This measurement was performed in five different fields and the mean value was calculated.
Immunostaining of the myocardial tissue sections was performed using antibodies against PDGFRα and CD29, which are surface markers of mesenchymal stem cells, to assess whether accumulation of mesenchymal stem cells was observed. Staining of the nuclei was performed using DAPI. […]
The structure of cardiomyocytes was observed by electron microscopy. Specifically, the full-thickness myocardium of the mid-portion was sampled, and subjected to pre-fixation with ½ Karnofsky, post-fixation with 2% osmium tetroxide, block-staining with 0.5% uranium acetate aqueous solution and dehydration with ethanol, and then embedded and polymerized by infiltrating epoxy resin (Queto1812). Ultrathin sections (70-110 nm) were made, and electron staining with uranium acetate and a lead stain solution was performed, and then observed by electron microscopy (H-7500, Hitachi High Technologies).

J2N-k hamsters [2] = assay: Efficacy evaluation in dilated cardiomyopathy model, long-term observations (Example 2); format: in vivo, hamster; conditions: vs PBS group
Method: As in Example 1, twenty J2N-k hamsters were prepared and divided into the HMGB1 peptide (1-44)-treated group (n=11) and the PBS-treated group (control, n=9), and treatment was begun at 20 weeks of age. Administration of the test substance was carried out by injecting a solution of the HMGB1 peptide (1-44), which has been adjusted to a concentration of 1 mg/ml with PBS as the vehicle, into the external jugular vein at a dose of 3 ml/kg (3 mg/kg as the peptide dosage) once daily for four consecutive days. In the control group, PBS was injected into the external jugular vein at a dose of 3 ml/kg once a day for four consecutive days. Evaluation of the cardiac function and survival rate was continued thereafter while rearing the hamsters under normal conditions.
Echocardiography was performed prior to dosing, at 4 weeks after dosing, and every 2 weeks thereafter to measure LVEF.
After the last dose, the animals were kept under normal conditions and the survival rate was evaluated.

[3] = tested on: old myocardial infarction model rats; assay: Efficacy evaluation in old myocardial infarction model rats (Example 3); format: in vivo, SD rats
Method: SD rats (7-week-old, male, body weight of approximately 250 g) were anesthetized with the inhalation anesthetic sevofrane (or isoflurane) and intubated endotracheally after adequate suppression was achieved, and deep anesthesia was maintained with the inhalation anesthetic. A thoracotomy was performed in the supine position at the left fourth intercostal space, and the proximal portion of the left anterior descending coronary artery was ligated with 6-0 prolene sutures to create a broad-area myocardial infarction model. The cardiac function was evaluated by echocardiography 2 weeks after the infarction was made, and cases in which extensive infarction was obtained (LVEF<50%) were used as old myocardial infarction model rats (17 animals in total). Similar to the above examples, the HMGB1 peptide (1-44) consisting of SEQ ID NO: 1 was used.
The old myocardial infarction model rats were divided into the HMGB1 peptide (1-44)-treated group (n=9) and the PBS-treated group (control, n=8), and treatment was begun 2 weeks after the infarction was made. Administration of the test substance was carried out by injecting a solution of the HMGB1 peptide (1-44), which has been adjusted to a concentration of 1 mg/ml with PBS as vehicle, into the femoral veins at a dose of 3 ml/kg (3 mg/kg as the peptide dosage) once daily for four consecutive days. In the control group, PBS was injected at a dose of 3 ml/kg once a day via the femoral vein for four consecutive days. At 4 weeks after dosing, the heart was removed by re-thoracotomy under deep anesthesia. […] Both groups were comparatively studied using cardiac physiological, histopathological, and molecular biological techniques to evaluate the effects of administering the HMGB1 peptide (1-44). The condition after 2 weeks (14 days) or more have passed following the onset of myocardial infarction in model rats is equivalent to the condition after 30 days or more have passed following the onset of myocardial infarction in humans.
Echocardiography was performed at 1, 2, and 4 weeks after dosing, and the left ventricular end-diastolic diameter (LVDd), left ventricular end-systolic diameter (LVDs), and left ventricular ejection fraction (LVEF) were measured and calculated to perform a cardiac function assessment.
Myocardial tissue sections were stained with Sirius red, and the proportion of stain-positive area in the total area of the left ventricular myocardium was calculated as the percentage of fibrosis (%).
Von-Willebrand factors were stained at the infarct border to determine the number of blood vessels (number of vascular endothelial cells). This measurement was performed in 10 different fields and the mean value was calculated.
Periodic Acid Schiff (PAS) staining was performed at the infarct border, and the short diameter of cardiomyocytes retaining a nuclear architecture at the infarct border was measured, and the average of the measurements was obtained. This measurement was performed in 10 different fields and the mean value was calculated.
Staining of the nuclei was performed using DAPI.

[4] = tested on: Dahl salt-sensitive rats (DIS/Eis rats); assay: Efficacy evaluation in hypertensive cardiomyopathy model (Example 4); format: in vivo, rat; conditions: High-1-44 vs High-PBS group
From the text: The Dahl salt-sensitive rats (hereafter also referred to as DIS/Eis rats) were used in the experiments. DIS/Eis rats are hypertensive when fed with a high-salt diet and are a model that develop heart failure at a high incidence (e.g., when fed with a diet supplemented with 8% NaCl from 6 weeks of age, blood pressure reaches 250 mm Hg at 9 weeks of age, death begin to appear from 12 weeks of age, and death is highly probable by 16 weeks of age).
Ten DIS/Eis rats (6-weeks-old, male, body weight about 200 g, Japan SLC) were prepared and divided into two groups, a high-salinity diet group (n=7) and a low-salinity diet group (n=3), and feeding was continued until 15 weeks of age in which the former was fed with a diet supplemented with 8% NaCl and the latter was fed with a diet supplemented with 0.3% NaCl. Aside from the meals, nothing interfered with free movement and they were kept clean and rested without restriction on drinking water, feeding, and such in their cages.
At 11 weeks of age, the high-salinity diet group (n=7) was divided into the HMGB1 peptide (1-44)-treated group (n=3) and the control group (n=4), and treatment was initiated. Administration of the test substance was carried out by injecting a solution of the HMGB1 peptide (1-44), which has been adjusted to a concentration of 1 mg/ml with PBS as the vehicle, into the tail vein at a dose of 3 ml/kg (3 mg/kg as the peptide dosage) once daily for four consecutive days. The control group was injected with PBS at a dose of 3 ml/kg once a day via the tail vein for four consecutive days. Similar to the control group, the low-salinity diet group (n=3) also received PBS via the tail vein for four consecutive days. At 4 weeks after dosing (at 15 weeks, of age), hearts were removed from the rats by thoracotomy under general anesthesia, and their weight was measured, and then histological sections of the left ventricular myocardial cross sections were prepared at the papillary muscle level and subjected to histological analysis. In the following description, the HMGB1 peptide (1-44) administration group fed with a high-salinity diet is abbreviated as the “High-1-44 group”; the control group fed with a high-salinity diet is abbreviated as the “High-PBS group” and the low-salinity diet group is abbreviated as the “Low-PBS group”.
At 15 weeks of age, hearts were removed from rats in each group and weighed. […]
Myocardial tissue sections were stained with Sirius red, and the proportion of stain-positive area in the area of the whole heart or the left ventricle was calculated as the percentage of fibrosis (%).

[5] = 4 and 6 weeks after dosing, 3 mg/kg i.v. x4 days, vs PBS group
[6] = apical myocardium, vs PBS group
[7] = 4 weeks after dosing, vs PBS group
[8] = immunostaining of myocardial tissue
[9] = infarct border, vs PBS group, P=0.05

HMGB1 peptide (1-44): peptide consisting of amino acid residues 1-44 (SEQ ID NO: 1) of the human HMGB1 protein, chemically synthesized by a solid-phase method (MGKGDPKKPRGKMSSYAFFVQTCREEHKKKHPDASVNFSEFSKK)
left ventricular end-diastolic diameter (LVDd) (J2N-k hamsters [1]; [5]): no significant differences
left ventricular end-systolic diameter (LVDs) (J2N-k hamsters [1]; [5]): no significant differences
TSG-6 expression level (RT-PCR) (J2N-k hamsters [1]; [6]): significantly higher
VEGF expression level (RT-PCR) (J2N-k hamsters [1]; [6]): significantly higher
short diameter of cardiomyocytes (PAS staining) (J2N-k hamsters [1]; both subendocardial layer and mid layer, 6 weeks after administration, vs PBS group): significantly smaller
left ventricular ejection fraction (LVEF) (J2N-k hamsters [1]; echocardiography 4 and 6 weeks after dosing, 3 mg/kg external jugular vein once a day for four days, compared with PBS group): significantly higher
recruitment of cells positive for both PDGFRα and CD29 to the myocardial tissue (J2N-k hamsters [1]; immunostaining of myocardial tissue sections): recruited
number of PDGFRα-positive and CD29-positive cells in the myocardial tissue (J2N-k hamsters [1]; immunostaining, vs PBS group): significantly more
mitochondrial cristae structure of cardiomyocytes (electron microscopy) (J2N-k hamsters [1]; loss of cristae structure in PBS group): cristae structure was maintained
number of blood vessels (anti-CD31 immunostaining), mid layer (J2N-k hamsters [1]; mid layer, 6 weeks after administration, vs PBS group): significantly higher
percentage of Sirius red stain-positive area (myocardial fibrosis) (J2N-k hamsters [1]; myocardial tissue sections 6 weeks after administration, vs PBS group): significantly smaller
number of blood vessels (anti-CD31 immunostaining), subendocardial layer (J2N-k hamsters [1]; subendocardial layer, 6 weeks after administration, vs PBS group): tended to be higher
survival rate (viability) (J2N-k hamsters [2]; long-term observations): tendency toward higher viability
LVEF, long-term (J2N-k hamsters [2]; until 6 weeks after administration, 3 mg/kg i.v. x4 days): remained significantly higher
left ventricular ejection fraction (LVEF) ([3]; 4 weeks after dosing, 3 mg/kg femoral vein once daily for four days, begun 2 weeks after infarction, vs PBS group): significantly higher
left ventricular end-diastolic diameter (LVDd) [3, 7]: smaller values
left ventricular end-systolic diameter (LVDs) [3, 7]: smaller values
recruitment of cells positive for both PDGFRα and CD90 near the infarct border [3, 8]: recruited
recruitment of cells positive for both PDGFRα and CD105 near the infarct border [3, 8]: recruited
PDGFRα-positive and CD90-positive cells in the vicinity of the infarct border ([3]; immunostaining, vs PBS group): more
number of vessels at the infarct border (von-Willebrand factor staining) [3, 9]: significantly more vessels
short diameter of cardiomyocytes at the infarct border (PAS staining) [3, 9]: significantly smaller
percentage of Sirius red stain-positive area (myocardial fibrosis) ([3]; left ventricular myocardium, 4 weeks after dosing, vs PBS group): significantly smaller
average improvement in LVEF with respect to before the dosing ([3]; up to 4 weeks after dosing): about 7%
end-diastolic left ventricular anterior wall thickness (LVAWd) ([4]; 15 weeks of age): smaller
heart weight ([4]; 15 weeks of age, high-salinity diet, 3 mg/kg tail vein once daily for four days from 11 weeks of age): smaller heart weights
percentage of fibrosis in the left ventricle ([4]; left ventricle): smaller
percentage of Sirius red-stained positive area (percentage of fibrosis) in the whole heart ([4]; whole heart): smaller
